From US8197860B2, “Method for enhancing nutrient absorption with astragalosides” (Nuliv Holding Inc., priority 2005, dated 2012)

Experiments:
Type in all cases: cell-based, human
[1] = system: Caco2 cells; assay: Glucose uptake assay; design: key to * (regulatory effect on glucose uptake): ↑: the arrows that point up represent the enhancing effect on the glucose uptake; conditions: for Regulatory effects on the glucose uptake of the Caco2 cells: Table 2 summary; for Uptake rate (glucose): 48 hours, 25 mM glucose
Protocol: (§1) To evaluate the effect of the isolated astragaloside compound on the uptake of nutrient substances across the intestinal lumen, Caco-2 cells were grown on permeable filter as an experimental model. Caco2 cells originate from human colonic adenocarcinoma and spontaneously differentiate into an enterocyte-like phenotype after two weeks. The Caco-2 cell line, derived from a human colorectal carcinoma, has been used as an in vitro model system for studying drug absorption in gastrointestinal tract. These cells form monolayers with well-developed tight-junctions, and have been evaluated in details as an in vitro model to study both transcellular transport of nutrients and drugs in intestinal lumen.
(§2) Caco-2 cells were obtained from the ATCC (American Type Culture Collection). The cells were maintained in Dulbecco's modified Eagle medium (DMEM) containing 4.5 g/L glucose and 25 mM Hepes, supplemented with 10% fetal calf serum, 100 U/mL penicillin G and […]. The medium was changed every second day. The cells were routinely checked for Mycoplasma in monthly intervals. Caco-2 cells were cultured on semi-permeable membranes to differentiate into a highly functionalized epithelial barrier with remarkable morphological and biochemical similarity to the small intestinal columnar epithelium. The Caco-2 cell monolayers could therefore be used to study the membrane transport properties of many compounds. To trypsinize the cells, the culture dish was washed once with phosphate-buffered saline (PBS) followed by adding trypsine-EDTA for 10 minutes. The trypsinized cells were separated and filtered into single cells using a 35-μm strainer cap (Falcon 2235) before being seeded for further experiments.
(§3) Caco-2 cells (5×10^4) were seeded in a 48-well plate and maintained in culture medium (DMEM with 10% FBS, 1% nonessential amino acids, L-glutamine, penicillin G (100 U/mL), streptomycin (10 μg/mL), and amphotericin B (2.5 μg/mL) in a 37° C. incubator for 10 days for the cells to differentiate. The culture medium was changed once every two days. The cells were then washed with PBS before replenishing with the culture medium containing 5% FBS and various astragalosides at the indicated concentrations (0.01, 0.1 and 1 μM) for 48 hours. The Caco2 cells were washed out of remaining glucose with PBS and replaced in the glucose buffer (80 mM NaCl, 100 mM mannitol, 20 mM Tris-HCl, pH 7.4, 3 mM K2HPO4, 1 mM CaCl2, 1 mg/mL BSA) for 1 hour. Glucose uptake was initiated by replacing the glucose buffer with 0.2 ml of glucose buffer containing 2 μCi/mL of ^14C-glucose and unlabeled cold glucose to give a final glucose concentration of 25 mM. Glucose uptake was stopped by removing the glucose buffer and washing with PBS at designated time intervals. The cells were lysed in 0.2 mL of 0.2 N NaOH, and 20 μL of the cell lysate were transferred to the filter-bottomed UniFilter plates (Perkin-Elmer, Wellesley, Mass., USA) and dried in a vacuum oven at 37° C. The bottom of the UniFilter plate was sealed and 25 μL of the counting solution were added into each well. Adhesive plate sealers were used in place of the lids and radioactivity of each sample was counted using the microplate liquid scintillation counter (TopCount, Packard NXT, Packard BioScience Company, Meriden, Conn., USA). The amount of glucose accumulated in the cells was calculated and normalized to protein concentration, and uptake rate was expressed as nanomoles of glucose per minutes per milligram of cell protein (nmol/min/mg). Protein concentration was determined by a standard Bicinchoninic acid (BCA) protein assay. Nonspecific glucose uptake was measured by adding 2 μCi of L-[^14C]-glucose and subtracting from each determination to obtain specific glucose uptake.

[2] = system: Caco-2 cell monolayer; assay: Arginine absorption assay (transport across Caco-2 cell monolayer); design: key to * (regulatory effect on arginine transport): ↑: the arrows that point up represent the enhancing effect on the arginine transport; conditions: for Regulatory effects on the arginine transport across the Caco2 cell monolayer: Table 3 summary; for Transport rate (arginine): 10 mM L-arginine apical; for Arginine transport rate: concentration from 0.01 μM to 1 μM
Protocol: as §1, §2
(§4) In measuring transport of arginine across the Caco-2 cell monolayer, both sides of the transwells were washed with arginine incubation buffer consisting of: 137 mM NaCl, 10 mM Hepes, 0.3 mM NaH2PO4, 0.3 mM K2HPO4, 5.4 mM KCl, 2.8 mM CaCl2, 1 mM MgSO4, 10 mM glucose, adjusted to pH 7.4. Then, the cell layer was preincubated in the incubation buffer at 37° C. for 1 h. The volume of incubation buffer was 0.2 mL and 0.9 mL in the apical and basolateral chambers, respectively. The cells were replaced with fresh incubation medium in both chambers prior to the transport experiment. The transport experiment was initiated by replacing the incubation solution on the apical side with solution containing 10 mM of L-arginine in which 0.125 μCi/mL of L-[^3H]-arginine was included. At designated time intervals, 10 μL-solution samples were removed from the basolateral side and radioactivity of each sample was counted using a microplate liquid scintillation counter (TopCount, Packard NXT). During the experiment, when a 10 μL-solution sample was removed from the basolateral side every time, 10 μL buffer was supplemented to keep the volume constant. The uptake of [^3H]-mannitol was used to correct for nonspecific transport of molecules across the monolayer membrane. Results were expressed as the nanomoles of arginine transport across the Caco-2 cell monolayers with respect to time in minutes (nmol/min).

[3] = system: Caco-2 cell monolayer; assay: Tryptophan absorption assay (transport across Caco-2 cell monolayer); design: key to * (regulatory effect on tryptophan transport): ↑: the arrows that point up represent the enhancing effect on the tryptophan transport; conditions: for Regulatory effects on the tryptophan transport across the Caco2 cell monolayer: Table 4 summary; for Tryptophan transport rate: concentration from 0.01 μM to 1 mM
Protocol: as §1, §2, §4
The experimental procedures similar to those in Example 2 were used for measuring the uptake of tryptophan molecules across the Caco-2 membrane, except using a tryptophan incubation buffer consisting of 137 mM choline chloride, 10 mM Hepes, 0.6 mM KH2PO4, 5.4 mM KCl, 2.8 mM CaCl2, 1 mM MgSO4, and 10 mM glucose, and having its pH adjusted to 7.4. Results were expressed as the nanomoles of tryptophan transport across the Caco-2 cell monolayers with respect to time in minutes (nmol/min).

[4] = system: Caco2 cells; assay: Folate uptake assay; design: key to * (regulatory effect on folate uptake): ↑: the arrows that point up represent the enhancing effect on folate uptake; conditions: compound 0.1 μM; for Uptake rate (folate): 2 days, 5 μM folate, pH 6.0
Protocol: as §1, §2, §3
The Caco2 cells were subjected to folate uptake test in a manner similar to that described in the glucose uptake assay in Example 1 above. […]

Structure (SMILES) | Regulatory effects on the glucose uptake of the Caco2 cells [1] | * (regulatory effect on glucose uptake) ([1]; compound 0.01 μM) | Percentage (glucose uptake, control = 100) ([1]; compound 0.01 μM) [%] | Uptake rate (glucose) ([1]; compound 0.01 μM) [nmol/mg/min] | * (regulatory effect on glucose uptake) ([1]; compound 0.1 μM) | Percentage (glucose uptake, control = 100) ([1]; compound 0.1 μM) [%] | Uptake rate (glucose) ([1]; compound 0.1 μM) [nmol/mg/min] | Percentage (glucose uptake, control = 100) ([1]; compound 1 μM) [%] | Uptake rate (glucose) ([1]; compound 1 μM) [nmol/mg/min] | Regulatory effects on the arginine transport across the Caco2 cell monolayer [2] | * (regulatory effect on arginine transport) ([2]; compound 0.01 μM) | Percentage (arginine transport, control = 100) ([2]; compound 0.01 μM) [%] | Transport rate (arginine) ([2]; compound 0.01 μM) [nmol/min] | * (regulatory effect on arginine transport) ([2]; compound 0.1 μM) | Percentage (arginine transport, control = 100) ([2]; compound 0.1 μM) [%] | Transport rate (arginine) ([2]; compound 0.1 μM) [nmol/min] | * (regulatory effect on arginine transport) ([2]; compound 1 μM) | Percentage (arginine transport, control = 100) ([2]; compound 1 μM) [%] | Transport rate (arginine) ([2]; compound 1 μM) [nmol/min] | Arginine transport rate [2] | other results
CC(C)(O)[C@@H]1CC[C@](C)([C@H]2[C@@H](O)C[C@@]3(C)[C@@H]4C[C@H](O[C@@H]5O[C@H](CO)[C@@H](O)[C@H](O)[C@H]5O)[C@H]5C(C)(C)[C@@H](O[C@@H]6OC[C@@H](O)[C@H](O)[C@H]6O)CC[C@@]56C[C@@]46CC[C@]23C)O1 [AS4, astragaloside IV] | had regulatory effects on the glucose uptake | ↑ | 183.15 | 11.670 ± 2.5800 | ↑ | 164.16 | 10.460 ± 2.6690 | 141.27 | 9.0020 ± 1.8300 | had regulatory effects on the arginine transport | ↑ | 156.52 | 16.7245 ± 0.2890 | ↑ | 172.73 | 18.4575 ± 0.5955 | ↑ | 161.19 | 17.2241 ± 0.3759 | increased | Glucose uptake rate versus control group ([1]; FIG. 1, selected concentrations): much higher glucose uptake rate than the control group; * (regulatory effect on glucose uptake) ([1]; compound 1 μM): ↑; Regulatory effects on the tryptophan transport across the Caco2 cell monolayer [3]: had regulatory effects on the tryptophan transport; * (regulatory effect on tryptophan transport) ([3]; compound 0.01 μM): ↑; Percentage (tryptophan transport, control = 100) ([3]; compound 0.01 μM): 113.29%; Transport rate (tryptophan) ([3]; compound 0.01 μM): 10.130 ± 0.7025 nmol/min; * (regulatory effect on tryptophan transport) ([3]; compound 0.1 μM): ↑; Percentage (tryptophan transport, control = 100) ([3]; compound 0.1 μM): 142.36%; Transport rate (tryptophan) ([3]; compound 0.1 μM): 12.730 ± 0.4470 nmol/min; * (regulatory effect on tryptophan transport) ([3]; compound 1 μM): ↑; Percentage (tryptophan transport, control = 100) ([3]; compound 1 μM): 108.07%; Transport rate (tryptophan) ([3]; compound 1 μM): 9.6640 ± 0.2770 nmol/min; Tryptophan transport rate [3]: increased; * (regulatory effect on folate uptake) [4]: ↑; Percentage (folate uptake vs own control) [4]: 135.12%; Uptake rate (folate) [4]: 75.710 ± 5.2390 pmol/mg/min
CC(=O)O[C@@H]1[C@@H](O)[C@H](O[C@H]2CC[C@]34C[C@]35CC[C@]3(C)[C@@H]([C@@]6(C)CC[C@@H](C(C)(C)O)O6)[C@@H](O)C[C@@]3(C)[C@@H]5C[C@H](O[C@@H]3O[C@H](CO)[C@@H](O)[C@H](O)[C@H]3O)[C@H]4C2(C)C)OC[C@H]1O [IsoAS2, isoastragaloside II] | had regulatory effects on the glucose uptake | ↑ | 115.69 | 7.3720 ± 2.5700 | ↑ | 107.05 | 6.8210 ± 1.6630 | 96.55 | 6.1520 ± 2.4610 | had regulatory effects on the arginine transport | ↑ | 138.11 | 14.7577 ± 0.2837 | ↑ | 132.01 | 14.1059 ± 0.1815 | ↑ | 118.40 | 12.6518 ± 0.3680 | increased | Regulatory effects on the tryptophan transport across the Caco2 cell monolayer [3]: had regulatory effects on the tryptophan transport; * (regulatory effect on tryptophan transport) ([3]; compound 0.01 μM): ↑; Percentage (tryptophan transport, control = 100) ([3]; compound 0.01 μM): 145.38%; Transport rate (tryptophan) ([3]; compound 0.01 μM): 13.000 ± 0.5547 nmol/min; * (regulatory effect on tryptophan transport) ([3]; compound 0.1 μM): ↑; Percentage (tryptophan transport, control = 100) ([3]; compound 0.1 μM): 146.05%; Transport rate (tryptophan) ([3]; compound 0.1 μM): 13.060 ± 0.5530 nmol/min; * (regulatory effect on tryptophan transport) ([3]; compound 1 μM): ↑; Percentage (tryptophan transport, control = 100) ([3]; compound 1 μM): 224.45%; Transport rate (tryptophan) ([3]; compound 1 μM): 20.070 ± 0.1931 nmol/min; Tryptophan transport rate [3]: increased; * (regulatory effect on folate uptake) [4]: ↑; Percentage (folate uptake vs own control) [4]: 162.87%; Uptake rate (folate) [4]: 86.63 ± 2.82 pmol/mg/min
